Like-named read-outs stand apart in the source and are kept apart here.
Test system: P-388 cells
Assay: Antineoplastic action against implanted P-388 tumor, CDF1 mice, i.p.-i.p. (T/C %)
Assay type: in vivo
Settings: Mus musculus, read-out: T/C %, (Treatment/Control %)
Method: In this animal test, the antineoplastic action against the implanted tumor was examined, in lower animals in vivo, in repsect to the compounds according to the present invention, by using CDF1 mice.
To the peritoneal cavity of each group of mice consisting of six CDF1 mice per group, 10^6 /0.1 ml of P-388 cells or 10^5 /0.1 ml of L-1210 cells were implanted. […] While to the control groups of CDF1 mice, P-388 and L-1210 cells were implanted in the same manner and they were bred without administration of the compounds. […]

[1] = ip, Table 6, P388, dose 0.05 mg/kg, i.p.
[2] = ip, Table 6, P388, dose 0.5 mg/kg, i.p.
[3] = ip, Table 6, P388, dose 2 mg/kg, i.p.

SMILES | response vs control in vivo at 0.05 mg/kg (P388, ip) [%] | response vs control in vivo at 0.5 mg/kg (P388, ip) [%] | response vs control in vivo at 2 mg/kg (P388, ip) [%] | response vs control in vivo at 4 mg/kg (P388, ip) [%] | response vs control in vivo at 0.05 mg/kg [1] [%] | response vs control in vivo at 0.5 mg/kg [2] [%] | response vs control in vivo at 2 mg/kg [3] [%] | response vs control in vivo at 4 mg/kg (ip, Table 6, P388, dose 4 mg/kg, i.p.) [%] | response vs control in vivo at 10 mg/kg (P388, ip) [%]
CCOc1ccc2cc1Oc1ccc(cc1)CC1C(=O)N(C)C(C2)C(=O)NC(C)C(=O)NC(C)C(=O)N(C)C(Cc2ccc(OC)cc2)C(=O)NC(C)C(=O)N1C (centres unmarked) [Ex. 3] | 137 | 165 | 162 |  |  |  |  |  | 
COc1ccc(CC2C(=O)NC(C)C(=O)N(C)C3Cc4ccc(cc4)Oc4cc(ccc4OC(C)C)CC(C(=O)NC(C)C(=O)NC(C)C(=O)N2C)N(C)C3=O)cc1 (centres unmarked) [Ex. 5] | 142 | 175 | 105 |  |  |  |  |  | 
CCCCCOc1ccc2cc1Oc1ccc(cc1)CC1C(=O)N(C)C(C2)C(=O)NC(C)C(=O)NC(C)C(=O)N(C)C(Cc2ccc(OC)cc2)C(=O)NC(C)C(=O)N1C (centres unmarked) [Ex. 7] | 122 | 143 | 165 |  |  |  |  |  | 
CCCCCCCOc1ccc2cc1Oc1ccc(cc1)CC1C(=O)N(C)C(C2)C(=O)NC(C)C(=O)NC(C)C(=O)N(C)C(Cc2ccc(OC)cc2)C(=O)NC(C)C(=O)N1C (centres unmarked) [Ex. 8] | 116 | 145 | 150 | 164 |  |  |  |  | 
CCCCCCCCOc1ccc2cc1Oc1ccc(cc1)CC1C(=O)N(C)C(C2)C(=O)NC(C)C(=O)NC(C)C(=O)N(C)C(Cc2ccc(OC)cc2)C(=O)NC(C)C(=O)N1C (centres unmarked) [Ex. 9] | 136 | 147 | 163 | 152 |  |  |  |  | 
CCCCCCCCCOc1ccc2cc1Oc1ccc(cc1)CC1C(=O)N(C)C(C2)C(=O)NC(C)C(=O)NC(C)C(=O)N(C)C(Cc2ccc(OC)cc2)C(=O)NC(C)C(=O)N1C (centres unmarked) [Ex. 10] |  |  |  |  | 112 | 142 | 150 | 155 | 
COc1ccc(CC2C(=O)NC(C)C(=O)N(C)C3Cc4ccc(cc4)Oc4cc(ccc4OC4CCCCC4)CC(C(=O)NC(C)C(=O)NC(C)C(=O)N2C)N(C)C3=O)cc1 (centres unmarked) [Ex. 16] | 126 | 162 | 164 |  |  |  |  |  | 
CCOC(=O)CCCOc1ccc2cc1Oc1ccc(cc1)CC1C(=O)N(C)C(C2)C(=O)NC(C)C(=O)NC(C)C(=O)N(C)C(Cc2ccc(OC)cc2)C(=O)NC(C)C(=O)N1C (centres unmarked) [Ex. 19(2), ethoxycarbonylpropylether (2) of TPC-A] | 114 | 140 | 142 | 153 |  |  |  |  | 
COc1ccc(CC2C(=O)NC(C)C(=O)N(C)C3Cc4ccc(cc4)Oc4cc(ccc4OC4CCCCO4)CC(C(=O)NC(C)C(=O)NC(C)C(=O)N2C)N(C)C3=O)cc1 (centres unmarked) [Ex. 20, tetrahydropyranylether of TPC-A] | 138 | 164 | 121 |  |  |  |  |  | 
CCC(=O)Oc1ccc2cc1Oc1ccc(cc1)CC1C(=O)N(C)C(C2)C(=O)NC(C)C(=O)NC(C)C(=O)N(C)C(Cc2ccc(OC)cc2)C(=O)NC(C)C(=O)N1C (centres unmarked) [Ex. 23] | 129 | 145 | 164 |  |  |  |  |  | 175
CCCC(=O)Oc1ccc2cc1Oc1ccc(cc1)CC1C(=O)N(C)C(C2)C(=O)NC(C)C(=O)NC(C)C(=O)N(C)C(Cc2ccc(OC)cc2)C(=O)NC(C)C(=O)N1C (centres unmarked) [Ex. 24] | 125 | 144 | 156 |  |  |  |  |  | 170
COc1ccc(CC2C(=O)NC(C)C(=O)N(C)C3Cc4ccc(cc4)Oc4cc(ccc4OC(=O)C(C)C)CC(C(=O)NC(C)C(=O)NC(C)C(=O)N2C)N(C)C3=O)cc1 (centres unmarked) [Ex. 25] | 124 | 151 | 156 |  |  |  |  |  | 184
CC=CC(=O)Oc1ccc2cc1Oc1ccc(cc1)CC1C(=O)N(C)C(C2)C(=O)NC(C)C(=O)NC(C)C(=O)N(C)C(Cc2ccc(OC)cc2)C(=O)NC(C)C(=O)N1C (centres unmarked) [Ex. 26] | 124 | 148 | 162 |  |  |  |  |  | 187
CCCCC(=O)Oc1ccc2cc1Oc1ccc(cc1)CC1C(=O)N(C)C(C2)C(=O)NC(C)C(=O)NC(C)C(=O)N(C)C(Cc2ccc(OC)cc2)C(=O)NC(C)C(=O)N1C (centres unmarked) [Ex. 27] | 118 | 150 | 158 |  |  |  |  |  | 172
CCCCCCC(=O)Oc1ccc2cc1Oc1ccc(cc1)CC1C(=O)N(C)C(C2)C(=O)NC(C)C(=O)NC(C)C(=O)N(C)C(Cc2ccc(OC)cc2)C(=O)NC(C)C(=O)N1C (centres unmarked) [Ex. 28] | 114 | 144 | 150 |  |  |  |  |  | 
CCCCCCCC(=O)Oc1ccc2cc1Oc1ccc(cc1)CC1C(=O)N(C)C(C2)C(=O)NC(C)C(=O)NC(C)C(=O)N(C)C(Cc2ccc(OC)cc2)C(=O)NC(C)C(=O)N1C (centres unmarked) [Ex. 29] | 127 | 147 | 167 |  |  |  |  |  | 169
COc1ccc(CC2C(=O)NC(C)C(=O)N(C)C3Cc4ccc(cc4)Oc4cc(ccc4OC(=O)c4ccccc4)CC(C(=O)NC(C)C(=O)NC(C)C(=O)N2C)N(C)C3=O)cc1 (centres unmarked) [Ex. 32] | 128 | 186 | 176 |  |  |  |  |  | 183
COc1ccc(CC2C(=O)NC(C)C(=O)N(C)C3Cc4ccc(cc4)Oc4cc(ccc4OC(=O)CCC(C)C)CC(C(=O)NC(C)C(=O)NC(C)C(=O)N2C)N(C)C3=O)cc1 (centres unmarked) [Ex. 40, 4-methyl valerate] | 112 | 134 | 152 |  |  |  |  |  | 
COc1ccc(CC2C(=O)NC(C)C(=O)N(C)C3Cc4ccc(cc4)Oc4cc(ccc4OC(=O)Cc4ccccc4)CC(C(=O)NC(C)C(=O)NC(C)C(=O)N2C)N(C)C3=O)cc1 (centres unmarked) [Ex. 41] |  |  |  |  | 118 | 147 | 159 |  | 
CCC(C)CC(=O)Oc1ccc2cc1Oc1ccc(cc1)CC1C(=O)N(C)C(C2)C(=O)NC(C)C(=O)NC(C)C(=O)N(C)C(Cc2ccc(OC)cc2)C(=O)NC(C)C(=O)N1C (centres unmarked) [Ex. 42] | 115 | 140 | 159 |  |  |  |  |  | 
CCCC(C)C(=O)Oc1ccc2cc1Oc1ccc(cc1)CC1C(=O)N(C)C(C2)C(=O)NC(C)C(=O)NC(C)C(=O)N(C)C(Cc2ccc(OC)cc2)C(=O)NC(C)C(=O)N1C (centres unmarked) [Ex. 43] | 117 | 142 | 154 |  |  |  |  |  | 
CCCC=CC(=O)Oc1ccc2cc1Oc1ccc(cc1)CC1C(=O)N(C)C(C2)C(=O)NC(C)C(=O)NC(C)C(=O)N(C)C(Cc2ccc(OC)cc2)C(=O)NC(C)C(=O)N1C (centres unmarked) [Ex. 44] | 117 | 150 | 165 |  |  |  |  |  | 
CCC=CCC(=O)Oc1ccc2cc1Oc1ccc(cc1)CC1C(=O)N(C)C(C2)C(=O)NC(C)C(=O)NC(C)C(=O)N(C)C(Cc2ccc(OC)cc2)C(=O)NC(C)C(=O)N1C (centres unmarked) [Ex. 45] |  |  |  |  | 122 | 145 | 162 |  | 

— patent US4476299A, “Cyclic polyamino containing compounds having therapeutic effect and the preparation thereof” (priority 1981, dated 1984)
